According to US9657059B2, “Immune system modulators” (Canimguide Therapeutics AB, priority 2013, dated 2017):
Each block holds one sequence with its values, some of them ahead of it. No end group written: not given here.

Key:
P3028 = P3028 (Homo sapiens, UniProt P02768); assay: Chip ELISA: binding of His-tag labeled P3028 to cyclic peptides, positional scan
Procedure: In order to identify cyclic peptides that bind to P3028, all possible variants of di- and tripeptides were synthesized on chips and the binding of the His-tag labeled P 3028 was analyzed using the ELISA-technique. Based on the identified binding motifs, looped 6-meres were produced and tested. […] Positional scans were performed in each position of the lead cyclic peptide was replaced with each of the other 19 L-amino acids. Binding of each of the substituted peptides was tested, and peptide sequences with even better binding capacity than that of the lead peptide were identified.

[1] = test system: NK-cell cytotoxicity against K562 target cells; assay type: cell-based, human
Procedure: The ability of specific albumin fragments to impact NK-cell cytotoxicity was also evaluated. In these experiments, synthetic peptides corresponding to albumin fragments (P3028, P3026, and P3027) (SEQ ID NOs: 185, 183, and 184, respectively) were prepared and the amount of lysis of K562 target cells was assessed (see Example 4).

K562 target cells = assay: NK-cell cytotoxicity (NKTEST); assay type: cell-based, human; details: 10 ug/ml, effector:target 40:1, four donors
Procedure: The NK-cell cytotoxic activity of blood mononuclear cells from four healthy donors was tested. Mononuclear cells were separated by standard Ficoll-paque Plus (Pharmacia AB, Sweden) density gradient centrifugation from heparinized blood obtained from healthy donors. NK cell cytotoxic activity of the mononuclear cells was then tested using a commercial kit (NKTEST, Orpegen Pharma GmblI, Heidelberg, Germany) following the manufacturers protocol. Briefly, the kit contains cryopreserved, NK-sensitive target cells (K562) labeled with a lipophilic green fluorescent membrane dye, which enables discrimination of effector and target cells. After incubation with effector cells, killed target cells are identified by a DNA-stain, which penetrates and specifically stain the nuclei of dead target cells. This way the percentage of killed targets can be determined by flow cytometry. The mononuclear cells were preincubated for 30 min at 37° C. with the indicated peptides (peptides have been described previously) at 10 ug/ml. Target cells were then added, giving an effector:target ratio of 40:1, and the cell mixture incubated at 37° C. for 3-4 hours. Samples were analysed on a FACSCalibur (BD Biosciences, San Jose, Calif.).

PBMCs [2] = assay: PBMC activation (CD69/CD71, flow cytometry) in RPMI plus 10% human AB serum; assay type: cell-based; details: healthy control person, 40 μg/mL; for PBMC activation, cells with enhanced CD69: 24 hours
Procedure: The activity of peptide P28R (SEQ ID NO: 2) and modifications of P28R was studied in a human ex vivo model using PBMCs in short term cultures, 24 or 48 hours. Effects of P28R and modifications of P28R on PBMC's from a healthy control person were studied. Activation was measured as percentage of cells with enhanced marker CD69 using flow cytometry. PBMCs were incubated with the peptides (40 μg/mL) for 24 hours in RPMI plus 10% human AB serum.
As observed in Example 37, P28R (SEQ ID NO: 2) can stimulate PBMC's from healthy controls in short term cultures when RPMI plus 10% normal human AB serum is used as culture medium. Truncations of P28R were also assessed for their ability to activate PBMC's. PBMCs were incubated with the peptides (40 μg/mL) for 24 hours in RPMI plus 10% human AB serum. PBMC activation was measured as percent cells with enhanced expression of either CD69 (FIG. 42A) or CD71 (FIG. 42B) using flow cytometry. Two experiments were performed for each peptide.
Effects of modified peptides on activation of PBMCs from healthy control person were assessed. Activation was determined as percentage of cells with enhanced marker CD69 or CD71 using flow cytometry. PBMCs were incubated with the peptides (40 μg/mL) for 48 hours in RPMI plus 10% human AB serum.

[3] = test system: PBMCs from a healthy control; assay: PBMC activation (CD69, CD71) by flow cytometry in RPMI plus 10% human AB serum; assay type: cell-based; details: 40 μg/mL; for PBMC activation, cells with enhanced CD69: 24 hours
Procedure: FIG. 41 is a series of graphs illustrating effects of modified peptides on activation of PBMCs from healthy control person. PBMCs were incubated with the peptides (40 μg/mL) for 24 hours in RPMI plus 10% human AB serum. Activation is determined as percentage of cells with enhanced marker CD69 using flow cytometry. FIG. 41A illustrates results of two experiments (410 and 412) performed for each peptide. FIG. 41B illustrates results of two experiments (414 and 416) performed for each peptide.
FIG. 42 is a series of graphs illustrating effects of the full length peptide P28R and the 6 amino acid central sequence (32230, FFVKLS, SEQ ID NO: 62) in culture medium containing normal human AB serum. Activation is determined as percentage of cells with enhanced marker CD69 or CD71 using flow cytometry. PBMCs were incubated with the peptides (40 μg/mL) for 24 hours in RPMI plus 10% human AB serum. FIG. 42A illustrates the results of two experiments (420 and 422) performed for each peptide. FIG. 42B illustrates the results of two experiments (424 and 426) performed for each peptide.
FIG. 46 is a series of graphs illustrating Effect of modified peptides on activation of PBMCs from healthy control person. […] PBMCs were incubated with the peptides (40 μg/mL) for 48 hours in RPMI plus 10% human AB serum.
Based on the positional scan data, it is contemplated that substitutions of SEQ ID NO: 2 can be useful in accordance with some embodiments herein for binding P3028, de-blocking the LFA-1 receptor from P3028-mediated inhibition (e.g. displacing bound P3028 peptide and P3028-structure containing molecules from the LFA-1 receptor), and/or stimulating immune cells. The activity of peptide P28R (SEQ ID NO: 2) and modifications of P28R was studied in a human ex vivo model using PBMCs from a healthy control human in short term cultures, and with PBMC activation measured as a percentage of cells with enhanced CD69 (see Example 37).
As P28R (SEQ ID NO: 2) can bind to P3028 and stimulate PBMC's from healthy controls in short term cultures, for example when in a culture medium comprising RPMI plus 10% normal human AB serum (see Example 37), it is contemplated that truncations of P28R in accordance with some embodiments herein can be useful for binding to inhibitors of any one or more of the peptides listed in Tables 1-4. Truncations of P28R were assessed for their ability to activate PBMC's (see Example 38). PBMCs were incubated with the peptides (40 μg/mL) for 24 hours in RPMI plus 10% human AB serum. PBMC activation was measured as percent cells with enhanced expression of either CD69 (FIG. 42A) or CD71 (FIG. 42B) using flow cytometry. […] However, PBMCs were also incubated with the peptides in cancer sera from dogs, or in caner sera from human cancer patients (see FIG. 43). […] As such, it is contemplated that in accordance with some embodiments herein, P28R, P28 core, or combinations of these peptides are useful for stimulating immune cells in the serum of a subject that has cancer.
Effects of modified peptides on the activation of PBMCs from a healthy control person were assessed (see Example 41). PBMCs were incubated with the peptides (40 μg/mL) for 48 hours in RPMI plus 10% human AB serum, and PBMC activation was determined by flow cytometry based on the percentage of cells with enhanced marker CD69 or CD71. Peptides P28R (SEQ ID NO: 2), P28 core (peptide 32230) (SEQ ID NO: 62), 32251 ([…]) (SEQ ID NO: 592), 32814 ([…]) (SEQ ID NO: 586), 32815 ([…]) (SEQ ID NO: 595), 32665 ([…]) (SEQ ID NO: 593), and 32819 ([…](C(PEG24))) (SEQ ID NO: 594) were tested. […] Accordingly, it is contemplated herein that

PBMCs [4] = assay: IL-2 induced proliferation of PBMCs, ex vivo model (3H-thymidine); assay type: cell-based, human; details: PBMCs from healthy control samples, 7 days
Procedure: 100 μl of RPMI1640 supplemented with 200 IU/ml penicillin, […] streptomycin, 4 mM L-glutamine (all from Sigma Chemical Co. MO, US) and 20% heat-inactivated human serum (autologous or from cancer patients) were added to uncoated, HSA or HSA/IgG coated tissue culture microtiter plates. PBMC, isolated from healthy individuals or patients with metastatic renal cell carcinoma, were diluted in RPMI/2% HSA at a concentration of 5×10^5/ml and 100 μl were added to the microtiter wells. Interleukin-2 (IL-2, Proleukin, Chiron, NL), at a final concentration of 120 IU/well, was added to some wells. Cells were cultured for 7 days in a humidified, 5% CO2-atmosphere at 37° C. Proliferation was assayed by incorporation of 1.6 μCi/well of [^3H]-thymidine (Amersham Int., UK) during the last 18 hrs. Mean values of dpm (disintegrations per minute) of triplicates were used for the calculations.
Cultures for IL-2 induced proliferation was set up with PBMC from healthy donors and autologous serum as described above with the exception that PBMC were first pre-incubated for 30 min at room temperature with the indicated albumin peptides at a concentration of 10 μg/ml. […]
The effect of different peptides on IL-2 induced proliferation was analyzed in the human ex vivo model, using PBMCs from healthy control samples. […] Proliferation was measured as incorporation of ^3H-thymidine during the final 18 hours. […]

- binding to P3028, positional scan (P3028): highest affinity
Sequence: CLRLIVMCG [SEQ ID NO: 266]

- binding to P3028, positional scan (P3028): highest affinity
Sequence: CLRLNVFCG [SEQ ID NO: 265]

Sequence: ELFEQLGEYKFQNALLVR [P3027]
- effect on NK-cell cytotoxicity [1]: Inhibition was not seen
- effect on NK-cell cytotoxicity (percent specific lysis) (K562 target cells): Inhibition was not seen

Sequence: KKLDTFFVYLSLFTER [compound 31135]
- PBMC activation, cells with enhanced CD69 (PBMCs [2]): also stimulated immune cells
- PBMC activation, cells with enhanced CD69 [3]: directly stimulate

Sequence: KKLDTVMVKLQLMTER [compound 30680]
- PBMC activation, cells with enhanced CD69 (PBMCs [2]): induced activation of PBMCs
- PBMC activation, cells with enhanced CD69 [3]: did not stimulate

Sequence: KVPQVSTPTLVEVSR (listed as Homo sapiens) [P3029]
- effect on IL-2 induced proliferation (PBMCs [4]): none of the other peptides identified by their binding to the artificial cell surface had any inhibitory activity

Sequence: RKLDTFFVKLSLFTERRR [compound 32814]
- PBMC activation, enhanced CD69 or CD71 (PBMCs [2]; 48 hours): stimulatory effect in short term cultures similar to that of P28R
- PBMC activation, cells with enhanced CD69 and CD71 ([3]; 48 hours): stimulatory effect in short term cultures similar to that of P28R
